In paper PMC10763615, “Identification and engineering of potent cyclic peptides with selective or promiscuous binding through biochemical profiling and bioinformatic data analysis” (RSC Chemical Biology, 2023) one finds Kd data, which are given here for eight compounds.

Read-outs that look alike come from different tables or passages of the source. Positions of bridges follow the written chain, without caps; N, C: chain ends. Residues, ends and D or L forms follow the SMILES beside them. Some results are limits rather than exact numbers.

Common to all, as to format: binding
One test deals with T1, FGF-R3C ECD (Homo sapiens, UniProt P22607).
T1 sequence (P22607 23-375 limits assumed): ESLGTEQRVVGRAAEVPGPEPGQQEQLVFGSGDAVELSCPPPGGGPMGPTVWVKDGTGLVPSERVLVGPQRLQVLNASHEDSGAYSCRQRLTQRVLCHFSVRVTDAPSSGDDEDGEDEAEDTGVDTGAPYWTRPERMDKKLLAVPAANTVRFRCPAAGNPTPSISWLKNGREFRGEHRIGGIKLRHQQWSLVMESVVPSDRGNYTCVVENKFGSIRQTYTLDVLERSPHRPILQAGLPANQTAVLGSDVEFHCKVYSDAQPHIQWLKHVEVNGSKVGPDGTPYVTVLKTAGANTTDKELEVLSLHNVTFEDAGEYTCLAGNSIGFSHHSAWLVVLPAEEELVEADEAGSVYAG
The test is described as follows: biochemical. Also noted: DNA constructs for the extracellular domain (ECD) of human FGF-; HPC4 (C); made in house; host or cells: HEK 293-6E. In a few lines:
(§1)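 Biolayer interferometry with biotinylated FGF-R ECD on streptavidin biosensors in PBS pH 7.4, 0.05% Tween-20, 0.01% BSA. Multi-concentration: purified peptide dilution series fitted to a multi-point KD model.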

The next test addresses T2, FGF-R1C ECD (Homo sapiens, UniProt P11362).
T2 sequence (P11362 22-376 limits assumed): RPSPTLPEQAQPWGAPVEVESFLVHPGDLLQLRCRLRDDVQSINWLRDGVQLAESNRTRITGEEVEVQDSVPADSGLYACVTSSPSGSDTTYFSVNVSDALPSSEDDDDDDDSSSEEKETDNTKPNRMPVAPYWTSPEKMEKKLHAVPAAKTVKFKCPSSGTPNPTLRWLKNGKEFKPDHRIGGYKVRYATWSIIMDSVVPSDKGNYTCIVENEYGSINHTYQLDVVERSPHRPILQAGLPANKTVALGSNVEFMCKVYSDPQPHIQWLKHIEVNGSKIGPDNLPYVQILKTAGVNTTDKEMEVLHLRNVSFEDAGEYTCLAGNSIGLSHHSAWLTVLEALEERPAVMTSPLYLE
The test is described as follows: biochemical. The arrangement: DNA constructs for the extracellular domain (ECD) of human FGF-; HPC4 (C); made in house; host or cells: HEK 293-6E. In short, it runs like this: as §1

A further test deals with T3, FGF-R4 ECD (Homo sapiens, UniProt P22455).
T3 construct: DNA constructs for the extracellular domain (ECD) of human FGF-; HPC4 (C); made in house; host or cells: HEK 293-6E
T3 sequence (P22455 22-369 limits assumed): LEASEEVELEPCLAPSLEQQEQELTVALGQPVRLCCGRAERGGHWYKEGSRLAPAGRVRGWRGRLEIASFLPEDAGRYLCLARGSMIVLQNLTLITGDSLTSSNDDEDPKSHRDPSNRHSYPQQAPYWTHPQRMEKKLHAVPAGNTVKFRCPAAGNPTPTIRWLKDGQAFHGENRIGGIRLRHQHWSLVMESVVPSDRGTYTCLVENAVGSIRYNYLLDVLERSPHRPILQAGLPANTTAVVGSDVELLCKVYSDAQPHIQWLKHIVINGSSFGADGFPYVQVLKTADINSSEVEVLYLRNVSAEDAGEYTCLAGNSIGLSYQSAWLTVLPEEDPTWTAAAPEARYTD
The experiment in a line: single concentration BLI of crude peptides. The following applies: read-out: KD (4). In a few lines: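 Streptavidin biosensors carrying biotinylated FGF receptor ECD were immersed in peptide (~1 μM for crude single-point runs, a concentration series for purified peptides) and then in peptide-free buffer. KD was obtained by fitting the BLI association and dissociation curves.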

The mark [1] stands for this setting: crude T18 selection 1 (1:1:1) peptides, single concentration BLI (Table S4).
[2] abbreviates: crude NNK peptides, single concentration BLI (Table S3).

The term Kd denotes a measure of binding affinity in units of concentration. On to `CSCC[C@H](NC(C)=O)C(=O)N[C@H]1CSSC[C@@H](C(=O)NCC(=O)N[C@@H](CO)C(=O)NCC(=O)N[C@@H](CO)C(=O)N[C@@H](CC(=O)O)C(=O)N[C@@H](Cc2ccc(O)cc2)C(=O)N[C@@H](CCCCN)C(=O)N[C@@H](CC(=O)O)C(=O)N[C@@H](CC(=O)O)C(=O)N[C@@H](CC(=O)O)C(=O)N[C@@H](CC(=O)O)C(=O)N[C@@H](CCCCN)C(N)=O)NC(=O)[C@H](CCCNC(=N)N)NC(=O)[C@H](Cc2c[nH]cn2)NC(=O)[C@H](Cc2ccccc2)NC(=O)[C@H](CC(C)C)NC(=O)[C@H](CCCCN)NC(=O)[C@H](Cc2ccc(O)cc2)NC(=O)[C@H](Cc2ccc(O)cc2)NC(=O)[C@H](Cc2ccc(O)cc2)NC(=O)[C@H](C(C)C)NC(=O)[C@H](Cc2ccc(O)cc2)NC(=O)[C@H]([C@@H](C)O)NC1=O` (Ac-MCTYVYYYKLFHRCGSGSDYKDDDDK-NH2; disulfide 2-14), for which the values for the Kd at FGF-R3C ECD, on FGF-R1C ECD and at FGF-R4 ECD (setting [1]) were > 10 µM, > 10 µM and 0.003 µM, respectively.

As for `CSCC[C@H](NC(C)=O)C(=O)N[C@H]1CSSC[C@@H](C(=O)NCC(=O)N[C@@H](CO)C(=O)NCC(=O)N[C@@H](CO)C(=O)N[C@@H](CC(=O)O)C(=O)N[C@@H](Cc2ccc(O)cc2)C(=O)N[C@@H](CCCCN)C(=O)N[C@@H](CC(=O)O)C(=O)N[C@@H](CC(=O)O)C(=O)N[C@@H](CC(=O)O)C(=O)N[C@@H](CC(=O)O)C(=O)N[C@@H](CCCCN)C(N)=O)NC(=O)[C@H](CCC(N)=O)NC(=O)[C@H](CCCCN)NC(=O)[C@H](Cc2ccc(O)cc2)NC(=O)[C@H](C(C)C)NC(=O)[C@H]([C@@H](C)O)NC(=O)[C@H](Cc2c[nH]c3ccccc23)NC(=O)[C@H](Cc2ccc(O)cc2)NC(=O)[C@H](CCCCN)NC(=O)[C@H](C(C)C)NC(=O)[C@H](Cc2c[nH]c3ccccc23)NC1=O` (Ac-MCWVKYWTVYKQCGSGSDYKDDDDK-NH2; disulfide 2-13), the Kd on FGF-R3C ECD was > 10 µM; on FGF-R1C ECD, > 10 µM; at FGF-R4 ECD (setting [2]), 0.207 µM.

Turning to `CSCC[C@H](N)C(=O)N[C@H]1CSSC[C@@H](C(=O)NCC(=O)N[C@@H](CO)C(=O)NCC(=O)N[C@@H](CO)C(=O)N[C@@H](CC(=O)O)C(=O)N[C@@H](Cc2ccc(O)cc2)C(=O)N[C@@H](CCCCN)C(=O)N[C@@H](CC(=O)O)C(=O)N[C@@H](CC(=O)O)C(=O)N[C@@H](CC(=O)O)C(=O)N[C@@H](CC(=O)O)C(=O)N[C@@H](CCCCN)C(N)=O)NC(=O)[C@H](CC(C)C)NC(=O)[C@H](C(C)C)NC(=O)[C@H](Cc2ccccc2)NC(=O)[C@@H]2CCCN2C(=O)[C@H](CC(C)C)NC(=O)[C@H](Cc2ccccc2)NC(=O)[C@H](CO)NC(=O)[C@H](CC(=O)O)NC(=O)[C@H](Cc2ccccc2)NC(=O)[C@H](C(C)C)NC1=O` (H-MCVFDSFLPFVLCGSGSDYKDDDDK-NH2; disulfide 2-13), the Kd was 0.06 µM on FGF-R3C ECD, > 10 µM on FGF-R1C ECD and > 10 µM at FGF-R4 ECD (setting [2]).

As to `CC[C@H](C)[C@@H]1NC(=O)[C@H](Cc2c[nH]c3ccccc23)NC(=O)[C@H]([C@@H](C)CC)NC(=O)[C@H](CO)NC(=O)[C@@H]2CCCN2C(=O)[C@H](Cc2c[nH]cn2)NC(=O)[C@H](CO)NC(=O)[C@H](Cc2c[nH]c3ccccc23)NC(=O)[C@H](Cc2c[nH]c3ccccc23)NC(=O)[C@H](C(C)C)NC(=O)[C@@H](NC(=O)[C@H](CCSC)NC(C)=O)CSSC[C@@H](C(=O)NCC(=O)N[C@@H](CO)C(=O)NCC(=O)N[C@@H](CO)C(=O)N[C@@H](CC(=O)O)C(=O)N[C@@H](Cc2ccc(O)cc2)C(=O)N[C@@H](CCCCN)C(=O)N[C@@H](CC(=O)O)C(=O)N[C@@H](CC(=O)O)C(=O)N[C@@H](CC(=O)O)C(=O)N[C@@H](CC(=O)O)C(=O)N[C@@H](CCCCN)C(N)=O)NC1=O` (Ac-MCVWWSHPSIWICGSGSDYKDDDDK-NH2; disulfide 2-13), the values for the Kd at FGF-R3C ECD, at FGF-R1C ECD and on FGF-R4 ECD (setting [1]) were > 10 µM, 0.065 µM and > 10 µM, respectively.

As for `CC[C@H](C)[C@@H]1NC(=O)[C@@H](NC(=O)[C@H](CCSC)NC(C)=O)CSSC[C@@H](C(=O)NCC(=O)N[C@@H](CO)C(=O)NCC(=O)N[C@@H](CO)C(=O)N[C@@H](CC(=O)O)C(=O)N[C@@H](Cc2ccc(O)cc2)C(=O)N[C@@H](CCCCN)C(=O)N[C@@H](CC(=O)O)C(=O)N[C@@H](CC(=O)O)C(=O)N[C@@H](CC(=O)O)C(=O)N[C@@H](CC(=O)O)C(=O)N[C@@H](CCCCN)C(N)=O)NC(=O)[C@H](CC(C)C)NC(=O)[C@H](CC(C)C)NC(=O)[C@H](Cc2ccc(O)cc2)NC(=O)[C@H](Cc2ccc(O)cc2)NC(=O)[C@H](Cc2ccccc2)NC(=O)[C@H](CC(C)C)NC(=O)[C@H](Cc2c[nH]cn2)NC(=O)[C@H](CC(C)C)NC(=O)[C@H](CC(=O)O)NC(=O)[C@H](CCCCN)NC1=O` (Ac-MCIKDLHLFYYLLCGSGSDYKDDDDK-NH2; disulfide 2-14), the equilibrium dissociation constant (Kd) at FGF-R3C ECD is > 10 µM; on FGF-R1C ECD, 0.03 µM; on FGF-R4 ECD (setting [1]) it was 0.014 µM.

`CC[C@H](C)[C@@H]1NC(=O)[C@@H](NC(=O)[C@H](CCSC)NC(C)=O)CSSC[C@@H](C(=O)NCC(=O)N[C@@H](CO)C(=O)NCC(=O)N[C@@H](CO)C(=O)N[C@@H](CC(=O)O)C(=O)N[C@@H](Cc2ccc(O)cc2)C(=O)N[C@@H](CCCCN)C(=O)N[C@@H](CC(=O)O)C(=O)N[C@@H](CC(=O)O)C(=O)N[C@@H](CC(=O)O)C(=O)N[C@@H](CC(=O)O)C(=O)N[C@@H](CCCCN)C(N)=O)NC(=O)[C@H](CO)NC(=O)[C@H](CO)NC(=O)[C@H](CCCNC(=N)N)NC(=O)[C@H](Cc2c[nH]c3ccccc23)NC(=O)[C@H](CC(C)C)NC(=O)[C@H](CC(C)C)NC(=O)[C@H](Cc2ccccc2)NC(=O)[C@H]([C@@H](C)O)NC(=O)[C@H](CCCCN)NC1=O` (Ac-MCIKTFLLWRSSCGSGSDYKDDDDK-NH2; disulfide 2-13): the equilibrium dissociation constant (Kd) on FGF-R3C ECD, at FGF-R1C ECD and at FGF-R4 ECD (setting [2]) was > 10 µM throughout.

`CSCC[C@H](NC(C)=O)C(=O)N[C@H]1CSSC[C@@H](C(=O)NCC(=O)N[C@@H](CO)C(=O)NCC(=O)N[C@@H](CO)C(=O)N[C@@H](CC(=O)O)C(=O)N[C@@H](Cc2ccc(O)cc2)C(=O)N[C@@H](CCCCN)C(=O)N[C@@H](CC(=O)O)C(=O)N[C@@H](CC(=O)O)C(=O)N[C@@H](CC(=O)O)C(=O)N[C@@H](CC(=O)O)C(=O)N[C@@H](CCCCN)C(N)=O)NC(=O)[C@H](CCC(=O)O)NC(=O)[C@H](CCCNC(=N)N)NC(=O)[C@H](CCCNC(=N)N)NC(=O)[C@H](Cc2c[nH]cn2)NC(=O)[C@H](Cc2ccccc2)NC(=O)[C@H](CCC(N)=O)NC(=O)[C@H](CC(C)C)NC(=O)[C@H](Cc2ccc(O)cc2)NC(=O)[C@H](Cc2ccc(O)cc2)NC(=O)[C@H](Cc2c[nH]c3ccccc23)NC(=O)[C@H](CC(C)C)NC1=O` (Ac-MCLWYYLQFHRRECGSGSDYKDDDDK-NH2; disulfide 2-14): the figures for the Kd at FGF-R3C ECD, on FGF-R1C ECD and on FGF-R4 ECD (setting [1]) were > 10 µM, 0.021 µM and 0.005 µM, respectively.

Consider `CC[C@H](C)[C@@H]1NC(=O)[C@H](CCC(=O)O)NC(=O)[C@H](CC(=O)O)NC(=O)[C@H](CCC(=O)O)NC(=O)[C@H](Cc2ccc(O)cc2)NC(=O)[C@@H](NC(=O)[C@H](CCSC)NC(C)=O)CSSC[C@@H](C(=O)NCC(=O)N[C@@H](CO)C(=O)NCC(=O)N[C@@H](CO)C(=O)N[C@@H](CC(=O)O)C(=O)N[C@@H](Cc2ccc(O)cc2)C(=O)N[C@@H](CCCCN)C(=O)N[C@@H](CC(=O)O)C(=O)N[C@@H](CC(=O)O)C(=O)N[C@@H](CC(=O)O)C(=O)N[C@@H](CC(=O)O)C(=O)N[C@@H](CCCCN)C(N)=O)NC(=O)[C@H](Cc2ccc(O)cc2)NC(=O)[C@H](CC(C)C)NC(=O)[C@H](C(C)C)NC(=O)[C@H](CCCCN)NC(=O)[C@H](Cc2ccc(O)cc2)NC(=O)[C@H](CC(C)C)NC(=O)[C@H](Cc2c[nH]c3ccccc23)NC1=O` (Ac-MCYEDEIWLYKVLYCGSGSDYKDDDDK-NH2; disulfide 2-15), for which the results for the dissociation constant (Kd) on FGF-R3C ECD, on FGF-R1C ECD and at FGF-R4 ECD (setting [1]) were > 10 µM, > 10 µM and 0.009 µM, respectively.
